Data: patent publication US20060069132A1, “Azolecarboxamide herbicides” (priority 2004, published 2006)

Columns and labels:
[1] = system: velvetleaf; experiment: Test B pre-/postemergence herbicide test; type: in vivo, Abutilon theophrasti
Description: (§1) Seeds selected from barnyardgrass (Echinochloa crus-galli (L.) Beauv.), Surinam grass (Urochloa decumbens (Staph) R. D. Webster, previously named Brachiaria decumbens Stapf), cocklebur (Xanthium strumarium L.), corn (Zea mays L.), large crabgrass (Digitaria sanguinalis (L.) Scop.), giant foxtail (Setaria faberi Herim.), lambsquarters (Chenopodium album L.), morningglory (Ipomoea coccinea L.), pigweed (Amaranthus retroflexus L.), rice (Oryza sativa L.) and velvetleaf (Abutilon theophrasti Medik.) were planted and treated preemergence with test chemicals formulated in a non-phytotoxic solvent mixture which included a surfactant.
(§2) At the same time, plants selected from these crop and weed species and also blackgrass (Alopecurus myosuroides Huds.), wheat (Triticum aestivum L.) and wild oat (Avena fatua L.) were treated with postemergence applications of test chemicals formulated in the same manner. Plants ranged in height from 2 to 18 cm (1- to 4-leaf stage) for postemergence treatments. Plant species in the flooded paddy test consisted of rice (Oryza sativa L.), small flower umbrella sedge (Cyperus difformis L.), ducksalad (Heteranthera limosa (Sw.) Willd.) and barnyardgrass (Echinochloa crus-galli (L.) Beauv.) grown to the 2-leaf stage for testing. Treated plants and controls were maintained in a greenhouse for 13 to 15 days, after which time all species were compared to controls and visually evaluated. Plant response ratings, summarized in Table B, are based on a scale of 0 to 100 where 0 is no effect and 100 is complete control. A dash (-) response means no test result.

[2] = system: wheat; experiment: Test B postemergence herbicide test; type: in vivo, Triticum aestivum; parameters: key to Wheat plant response rating: 0 = no effect, 100 = complete control
Protocol: as §2

[3] = system: giant foxtail; experiment: Test B pre-/postemergence herbicide test; type: in vivo, Setaria faberi
Description: as §1, §2

[4] = system: wild oat; experiment: Test B postemergence herbicide test; type: in vivo, Avena fatua
Protocol: as §2

[5] = system: large crabgrass; experiment: Test B pre-/postemergence herbicide test; type: in vivo, Digitaria sanguinalis
Description: as §1, §2

[6] = system: Surinam grass; experiment: Test B pre-/postemergence herbicide test; type: in vivo, Urochloa decumbens
Description: as §1, §2

[7] = system: cocklebur; experiment: Test B pre-/postemergence herbicide test; type: in vivo, Xanthium strumarium
Description: as §1, §2

[8] = system: morningglory; experiment: Test B pre-/postemergence herbicide test; type: in vivo, Ipomoea coccinea
Description: as §1, §2

[9] = system: barnyardgrass; experiment: Test B flooded paddy test; type: in vivo, Echinochloa crus-galli; details: 1000 g ai/ha, scale 0 to 100 (0 no effect, 100 complete control)
Protocol: as §2

[10] = system: blackgrass; experiment: Test B postemergence herbicide test; type: in vivo, Alopecurus myosuroides
Protocol: as §2

[11] = system: barnyardgrass; experiment: Test B pre-/postemergence herbicide test; type: in vivo, Echinochloa crus-galli
Description: as §1, §2

[12] = system: small flower umbrella sedge; experiment: Test B flooded paddy test; type: in vivo, Cyperus difformis; details: 1000 g ai/ha, scale 0 to 100 (0 no effect, 100 complete control)
Protocol: as §2

[13] = system: rice; experiment: Test B flooded paddy test; type: in vivo, Oryza sativa; details: 1000 g ai/ha, scale 0 to 100 (0 no effect, 100 complete control)
Protocol: as §2

[14] = system: corn; experiment: Test B pre-/postemergence herbicide test; type: in vivo, Zea mays
Description: as §1, §2

[15] = system: lambsquarters; experiment: Test B pre-/postemergence herbicide test; type: in vivo, Chenopodium album
Description: as §1, §2

[16] = system: ducksalad; experiment: Test B flooded paddy test; type: in vivo, Heteranthera limosa; details: 1000 g ai/ha, scale 0 to 100 (0 no effect, 100 complete control)
Protocol: as §2

[17] = system: pigweed; experiment: Test B pre-/postemergence herbicide test; type: in vivo, Amaranthus retroflexus
Description: as §1, §2

[18] = 500 g ai/ha; visual rating 0-100, 0 no effect, 100 complete control; preemergence
[19] = Postemergence, 500 g ai/ha; visual rating after 13 to 15 days, scale 0 (no effect) to 100 (complete control)
[20] = postemergence, 125 g ai/ha; visual rating, scale 0 (no effect) to 100 (complete control)
[21] = preemergence, 125 g ai/ha; 0 to 100 scale, 0 is no effect, 100 is complete control
[22] = postemergence, 16 g ai/ha; scale 0 to 100
[23] = postemergence; 62 g ai/ha; scale 0 to 100
[24] = 125 g ai/ha; 0 is no effect, 100 is complete control; preemergence
[25] = 125 g ai/ha; visual rating, scale 0 (no effect) to 100 (complete control); postemergence
[26] = 125 g ai/ha, visual rating, scale 0 (no effect) to 100 (complete control), postemergence
[27] = 500 g ai/ha, scale 0 to 100, 0 no effect, 100 complete control, preemergence
[28] = postemergence, 500 g ai/ha; scale 0 to 100, 0 is no effect, 100 is complete control

CCCn1nc(C(C)(C)C)cc1C(=O)Nc1cccc(C(C)=NO)c1 [Compound 113]
Plant response rating, Velvetleaf [1, 18]: 20
Plant response rating, Velvetleaf [1, 19]: 60
Velvetleaf plant response rating [1, 20]: 20
Plant response rating, Velvetleaf [1, 21]: 20
Plant response rating, Wheat ([2]; Postemergence, 500 g ai/ha, visual rating after 13 to 15 days, scale 0 (no effect) to 100 (complete control)): 30
Wheat plant response rating ([2]; postemergence, 125 g ai/ha, visual rating, scale 0 (no effect) to 100 (complete control)): 10
Plant response rating, Foxtail, Giant [3, 18]: 30
Plant response rating, Foxtail, Giant [3, 19]: 40
Foxtail, Giant plant response rating [3, 20]: 30
Plant response rating, Foxtail, Giant [3, 21]: 10
Plant response rating, Oat, Wild [4, 19]: 60
Oat, Wild plant response rating [4, 20]: 40
Plant response rating, Crabgrass, Large [5, 18]: 100
Plant response rating, Crabgrass, Large [5, 19]: 80
Crabgrass, Large plant response rating [5, 20]: 30
Plant response rating, Crabgrass, Large [5, 21]: 100
Plant response rating, Surinam Grass [6, 18]: 10
Plant response rating, Surinam Grass [6, 19]: 60
Surinam Grass plant response rating [6, 20]: 40
Plant response rating, Surinam Grass [6, 21]: 10
Plant response rating, Cocklebur [7, 18]: 20
Plant response rating, Cocklebur [7, 19]: 100
Cocklebur plant response rating [7, 20]: 100
Plant response rating, Cocklebur [7, 21]: 0
Plant response rating, Morningglory [8, 18]: 50
Plant response rating, Morningglory [8, 19]: 100
Morningglory plant response rating [8, 20]: 20
Plant response rating, Morningglory [8, 21]: 0
Barnyardgrass plant response rating ([9]; visual rating, 13 to 15 days): 70
Plant response rating, Blackgrass [10, 19]: 20
Blackgrass plant response rating [10, 20]: 10
Plant response rating, Barnyardgrass [11, 18]: 90
Plant response rating, Barnyardgrass [11, 19]: 80
Barnyardgrass plant response rating [11, 20]: 30
Plant response rating, Barnyardgrass [11, 21]: 60
Sedge, Umbrella plant response rating ([12]; visual rating, 13 to 15 days): 90
Rice plant response rating ([13]; visual rating, 13 to 15 days): 60
Plant response rating, Corn [14, 18]: 0
Plant response rating, Corn [14, 19]: 30
Corn plant response rating [14, 20]: 30
Plant response rating, Corn [14, 21]: 0
Plant response rating, Lambsquarters [15, 18]: 100
Plant response rating, Lambsquarters [15, 19]: 100
Lambsquarters plant response rating [15, 20]: 90
Plant response rating, Lambsquarters [15, 21]: 80
Ducksalad plant response rating ([16]; visual rating, 13 to 15 days): 90
Plant response rating, Pigweed [17, 18]: 100
Plant response rating, Pigweed [17, 19]: 100
Pigweed plant response rating [17, 20]: 90
Plant response rating, Pigweed [17, 21]: 0

CCn1nc(C(C)(C)C)cc1C(=O)Nc1cc(C(=O)NC)c(F)cc1F [Compound 251]
Velvetleaf plant response rating [1, 22]: 0
Velvetleaf plant response rating [1, 23]: 10
Wheat plant response rating ([2]; postemergence, 16 g ai/ha, scale 0 to 100): 20
Wheat plant response rating ([2]; postemergence, 62 g ai/ha, scale 0 to 100): 20
Foxtail, Giant plant response rating [3, 22]: 0
Foxtail, Giant plant response rating [3, 23]: 0
Oat, Wild plant response rating [4, 22]: 20
Oat, Wild plant response rating [4, 23]: 20
Crabgrass, Large plant response rating [5, 22]: 0
Crabgrass, Large plant response rating [5, 23]: 0
Surinam Grass plant response rating [6, 22]: 0
Surinam Grass plant response rating [6, 23]: 0
Cocklebur plant response rating [7, 22]: 0
Cocklebur plant response rating [7, 23]: 0
Morningglory plant response rating [8, 22]: 0
Morningglory plant response rating [8, 23]: 0
Barnyardgrass plant response rating [9]: 0
Blackgrass plant response rating [10, 22]: 10
Blackgrass plant response rating [10, 23]: 50
Barnyardgrass plant response rating [11, 22]: 0
Barnyardgrass plant response rating [11, 23]: 0
Sedge, Umbrella plant response rating [12]: 40
Rice plant response rating [13]: 40
Corn plant response rating [14, 22]: 0
Corn plant response rating [14, 23]: 0
Lambsquarters plant response rating [15, 22]: 0
Lambsquarters plant response rating [15, 23]: 10
Ducksalad plant response rating [16]: 30
Pigweed plant response rating [17, 22]: 0
Pigweed plant response rating [17, 23]: 10

CCc1nn(C(C)(C)C)nc1C(=O)Nc1cc(C(=O)N2CC=CC2)ccc1F [Compound 363]
Plant response rating (0 to 100 scale), Velvetleaf [1, 24]: 0
Velvetleaf plant response rating [1, 25]: 10
Wheat plant response rating [2, 26]: 10
Wheat plant response rating [2, 27]: 30
Plant response rating (0 to 100 scale), Foxtail, Giant [3, 24]: 20
Foxtail, Giant plant response rating [3, 25]: 10
Foxtail, Giant plant response rating [3, 28]: 10
Oat, Wild plant response rating [4, 25]: 20
Plant response rating (0 to 100 scale), Crabgrass, Large [5, 24]: 20
Crabgrass, Large plant response rating [5, 25]: 10
Crabgrass, Large plant response rating [5, 28]: 10
Plant response rating (0 to 100 scale), Surinam Grass [6, 24]: 0
Surinam Grass plant response rating [6, 25]: 10
Plant response rating (0 to 100 scale), Cocklebur [7, 24]: 0
Cocklebur plant response rating [7, 25]: 20
Cocklebur plant response rating [7, 28]: 30
Plant response rating (0 to 100 scale), Morningglory [8, 24]: 0
Morningglory plant response rating [8, 25]: 50
Barnyardgrass plant response rating [9]: 60
Blackgrass plant response rating [10, 25]: 20
Blackgrass plant response rating [10, 28]: 70
Plant response rating (0 to 100 scale), Barnyardgrass [11, 24]: 0
Barnyardgrass plant response rating [11, 25]: 0
Barnyardgrass plant response rating [11, 28]: 0
Sedge, Umbrella plant response rating [12]: 80
Rice plant response rating [13]: 60
Plant response rating (0 to 100 scale), Corn [14, 24]: 0
Corn plant response rating [14, 25]: 0
Corn plant response rating [14, 28]: 0
Plant response rating (0 to 100 scale), Lambsquarters [15, 24]: 0
Lambsquarters plant response rating [15, 25]: 30
Ducksalad plant response rating [16]: 90
Plant response rating (0 to 100 scale), Pigweed [17, 24]: 0
Pigweed plant response rating [17, 25]: 20

CCc1nn(C(C)(C)C)nc1C(=O)Nc1cccc(C(=O)N(C)C)c1 [Compound 364]
Plant response rating (0 to 100 scale), Velvetleaf [1, 24]: 100
Velvetleaf plant response rating [1, 25]: 20
Wheat plant response rating [2, 26]: 10
Wheat plant response rating [2, 27]: 100
Plant response rating (0 to 100 scale), Foxtail, Giant [3, 24]: 100
Foxtail, Giant plant response rating [3, 25]: 10
Foxtail, Giant plant response rating [3, 28]: 50
Oat, Wild plant response rating [4, 25]: 20
Plant response rating (0 to 100 scale), Crabgrass, Large [5, 24]: 100
Crabgrass, Large plant response rating [5, 25]: 30
Crabgrass, Large plant response rating [5, 28]: 70
Plant response rating (0 to 100 scale), Surinam Grass [6, 24]: 100
Surinam Grass plant response rating [6, 25]: 30
Plant response rating (0 to 100 scale), Cocklebur [7, 24]: 70
Cocklebur plant response rating [7, 25]: 40
Cocklebur plant response rating [7, 28]: 50
Plant response rating (0 to 100 scale), Morningglory [8, 24]: 70
Morningglory plant response rating [8, 25]: 20
Barnyardgrass plant response rating [9]: 90
Blackgrass plant response rating [10, 25]: 30
Blackgrass plant response rating [10, 28]: 80
Plant response rating (0 to 100 scale), Barnyardgrass [11, 24]: 100
Barnyardgrass plant response rating [11, 25]: 10
Barnyardgrass plant response rating [11, 28]: 70
Sedge, Umbrella plant response rating [12]: 100
Rice plant response rating [13]: 90
Plant response rating (0 to 100 scale), Corn [14, 24]: 80
Corn plant response rating [14, 25]: 10
Corn plant response rating [14, 28]: 40
Plant response rating (0 to 100 scale), Lambsquarters [15, 24]: 100
Lambsquarters plant response rating [15, 25]: 70
Ducksalad plant response rating [16]: 100
Plant response rating (0 to 100 scale), Pigweed [17, 24]: 100
Pigweed plant response rating [17, 25]: 40
